Source: patent US12643882B2, “Inhibitors of human respiratory syncytial virus and metapneumovirus” (priority 2022, dated 2026)
Read-outs that look alike come from different tables or passages of the source.

Legend:
RSV-A2-GFP virus = test: microbe, parasite or virus in culture; assay type: cell-based, Human Respiratory Syncytial Virus
Protocol: To set up the assay, ARF vials were thawed in a 37° C. water bath and a control compound was resuspended in assay media DMEM (Dulbecco's Modified Eagle Medium) containing 2% FBS, 100 U/ml Penicillin-Streptomycin.
GFP sequence was derived from pJTI™ R4 Dest CMV N-EmGFP pA Vector (Invitrogen) and was cloned into the intergenic sequence between wild-type RSV-A2 P and M genes using standard recombineering techniques. Recombinant RSV-A2-GFP was propagated in Hep2 cells (human cells contain HeLa marker chromosomes and were derived via HeLa contamination, ATCC CCL-23) with a Multiplicity of Infection (MOI) of 0.1. Virus was harvested 3 days after infection by collecting all culture material and then freeze-thawing the mixture for 5 min. Working virus stocks were generated by thawing frozen viral cultures in 37° C. water bath, which were centrifuged at 218 g for 15 min at 4° C. 1/10 of 10×SPG (Biological Industries 06-3061-01-5A) were added and then mixed. The supernatant was aliquoted, frozen in liquid nitrogen, and then transferred to a −80° C. freezer for storage. Virus titer was determined by automated plaque assay in HEp-2 cells following methods described previously (Wen Z. et al.; 2019).
Calu-1 cells were purchased from ATCC (Cat #HTB-54) and were expanded in growth media (DMEM containing 10% FBS, 100 U/ml Penicillin-Streptomycin). To make ARF, cell culture media was removed and discarded and the cell layer was briefly rinsed with PBS to remove serum. 2.5 mL of TrypLE Express solution were added and cells incubated until dislodged, to which growth media was added and the cells were resuspended by gentle pipetting. Cells were counted for concentration and viability as determined by ViCell. Cells were centrifuged at RT, 300 g for 5 minutes to pellet cells. The supernatant was gently aspirated and the pellet was flicked to loosen cells. Cells were resuspended in an appropriate volume of freezing medium (DMEM containing 10% DMSO, 10% FBS, 100 U/ml Penicillin-Streptomycin) to achieve a concentration of 5×10^6 cells/mL. 1 mL aliquots of the cell suspension were transferred to freezing vials. The vials were put into an upright container in a −80° C. freezer overnight before transferring vials to liquid nitrogen for storage.
Assay ready freezedown (ARF, generation described separately) Calu-1 cells (ATCC HTB-54) were used. Compound plates were prepared by dispensing compounds dissolved in DMSO into the wells of a 384 well Corning® 3985 plate with an ECHO acoustic dispenser and compounds were tested in 10-point serial 3-fold dilution. […] To set up the assay, ARF vial(s) were thawed in a 37° C. water bath and were then resuspended into assay media (DMEM containing 2% FBS, 100 U/ml Penicillin-Streptomycin). Cells were counted using default parameters on ViCell and diluted to 20,000 cells/mL in assay media. RSV-A2-GFP virus was added to cells at 24,000 pfu/ml (MOI=1.2) and mixed by gentle inversion. 10 μL/well of 100% DMSO was dispensed as CellTiter-Glo (CTG) assay Max_E controls wells. The cells were dispensed at 50 μL/well using Bravo with 50 μL filtered tips into compound plates. Plates were covered with MicroClime lids, loaded with 7.5 mL of assay media to minimize evaporation, and were incubated at 37° C. and 5% CO2 for 96 hrs. Following incubation, distinct, GFP-expressing cells were counted using an Acumen imaging system with appropriate settings. A same-well CTG assay was performed by adding 10 μL/well reconstituted CellTiter-Glo reagent (Promega G7573) and plates were read on PerkinElmer Envision according to manufacturer's instructions. Raw data were loaded and analyzed in ActivityBase. Antiviral IC50 and cytotoxicity CC50 values were determined using a 4 parameter logistic fit based on the Levenberg-Marquardt algorithm. Model: 205-4 Parameter Logistic.

hMPV-GFP virus = test: microbe, parasite or virus in culture; assay type: cell-based, human metapneumovirus
Protocol: GFP expressing rgHMPV #3 p3 was generated in Dr. Buchholz's lab (Biacchesi S. et al., J Virol. 2007 June; 81(11): 6057-6067) and propagated in VERO cells (ATCC Cat #CCL-81) with a Multiplicity of Infection (MOI) of 0.1. Virus was harvested 4 days after infection by collecting cultured material and was freeze-thaw cycled in liquid nitrogen twice. Working virus stocks were generated from thawing frozen samples in 37° C. water bath, which were centrifuged at 218 g for 15 min at 4° C. 1/10 of 10×SPG (Biological Industries 06-3061-01-5A) were added and then mixed. The supernatant was aliquoted, frozen in liquid nitrogen, and then transferred to a −80° C. freezer for storage. Virus titer was determined by performing titration test in 96-well plates and calculate approximate virus titer using GFP event/well data.
Compound plates were prepared by dispensing compounds dissolved in DMSO into wells of a 384 well Corning 3985 polystyrene flat clear bottom optical imaging microplate (202.5 nL/well) using an ECHO acoustic dispenser. Each compound was tested in 10-point serial 3-fold dilution (typical final concentrations: 40,300 nM-2 nM). […] Continuous culture of VERO cells was maintained in complete culture media (OptiMEM supplemented with 2 mM GlutaMAX™ and 100 U/ml Penicillin-Streptomycin). To set up the assay, VERO cells were trypsinized with 0.25% Trypsin-EDTA until cells were dislodged, then cells were re-suspended with 1 mL FBS. Cells were spun down at 300 g for 5 minutes and cells were washed twice with culture media and counted using default parameters on ViCell. Cells were then diluted to 100,000 cells/mL (5,000 cells/50 μL) in complete culture media+TrypLE Select (80 μL/mL). hMPV-GFP virus was added to cells at 125,000 pfu/mL (MOI=1.25) and were mixed by gentle inversion. 10 μL/well of 100% DMSO was dispensed to CellTiter-Glo (CTG) assay Max_E controls wells. Cells were dispensed at 50 μL/well using Bravo and 50 μL filtered tips into compound plates. Plates were covered with MicroClime lids and loaded with 7.5 mL of assay media to minimize evaporation. Plates were lightly shaken for 10 minutes at room temperature and then incubated at 37° C. and 5% CO2 for 48 hrs. Following incubation, distinct GFP-expressing cells were counted using an Acumen imaging system with appropriate settings. A same-well CTG assay was performed by adding 10 μL/well reconstituted CellTiter-Glo reagent (Promega G7573) and plates were read on PerkinElmer Envision according to manufacturer's instructions. Raw data were loaded and analyzed in ActivityBase. Antiviral IC50 and cytotoxicity CC50 values were determined using a 4 parameter logistic fit based on the Levenberg-Marquardt algorithm. Model: 205-4 Parameter Logistic. • References: Wen Z, Citron M, Bett A J, Espeseth A S, Vora K A, Zhang L, DiStefano D J. Development and application of a higher throughput RSV plaque assay by immunofluorescent imaging. J Virol Methods. 2019 January; 263:88-95. doi: 10.1016/j.jviromet.2018.10.022. Epub 2018 Oct. 28. PMD: 30381239. • Biacchesi S, Murphy B R, Collins P L, Buchholz U J. Frequent frameshift and point mutations in the SH gene of human metapneumovirus passaged in vitro. J Virol. 2007 June; 81(11):6057-67. doi: 10.1128/JVL.00128-07. Epub 2007 Mar. 21. PMID: 17376897; PMCID: MC 1900297. Assay Data

[1] = Calu-1 cells infected with RSV-A2-GFP, 96 hrs, GFP-expressing cells counted, read-out: RSV EC50
[2] = VERO cells infected with hMPV-GFP, 48 hrs, GFP-expressing cells counted, read-out: hMPV EC50
[3] = read-out: RSV EC50, Calu-1 cells infected with RSV-A2-GFP, 96 hrs, GFP-expressing cells counted
[4] = human metapneumovirus, Vero, 48 h, read-out: hMPV EC50, VERO cells infected with hMPV-GFP, 48 hrs, GFP-expressing cells counted
[5] = read-out: hMPV EC50, VERO cells infected with hMPV-GFP, 48 hrs, GFP-expressing cells counted
[6] = human respiratory syncytial virus, Calu-1, 96 h, read-out: RSV EC50, Calu-1 cells infected with RSV-A2-GFP, 96 hrs, GFP-expressing cells counted

SMILES | EC50 (RSV-A2-GFP virus; [1]) [nM] | EC50 (hMPV-GFP virus; [4]) [nM] | EC50 (RSV-A2-GFP virus; [6]) [nM] | also measured
Cc1nc(-c2ncccn2)sc1C(=O)N1C[C@@H]2C(Oc3cc(C(C)(C)N)cc(C4=CCC(C)CC4)n3)[C@@H]2C1 (mixture of isomers) [Example 46, rac-((1R,5S,6s)-6-((4-(2-aminopropan-2-yl)-6-(4-methylcyclohex-1-en-1-yl)pyridin-2-yl)oxy)-3-azabicyclo[3.1.0]hexan-3-yl)(4-methyl-2-(pyrimidin-2-yl)thiazol-5-yl)methanone] | < 10 |  |  | EC50 (hMPV-GFP virus; [2]): > 100 nM
Cc1nc(-c2ncccn2)sc1C(=O)N1C[C@@H]2C(Oc3cc(C(C)(C)N)cc(C4=CCC(C(F)(F)F)CC4)n3)[C@@H]2C1 (mixture of isomers) [Example 47, rac-((1R,5S,6s)-6-((4-(2-aminopropan-2-yl)-6-(4-(trifluoromethyl)cyclohex-1-en-1-yl)pyridin-2-yl)oxy)-3-azabicyclo[3.1.0]hexan-3-yl)(4-methyl-2-(pyrimidin-2-yl)thiazol-5-yl)methanone] | < 10 |  |  | EC50 (hMPV-GFP virus; [2]): > 100 nM
Cc1nc(-c2ncccn2)sc1C(=O)N1C[C@@H]2[C@H]1C[C@H]2Oc1cc(C(C)(C)N)cc(-c2ccc(F)cc2)n1 (single isomer, unassigned) [Example 1A] |  | > 100 |  | EC50 (RSV-A2-GFP virus; [3]): > 100 nM
Cc1nc(-c2ncccn2)sc1C(=O)N1C[C@@H]2[C@H]1C[C@H]2Oc1cc(C(C)(C)N)cc(-c2ccc(F)cc2)n1 (single isomer, unassigned) [Example 1B] |  |  |  | EC50 (RSV-A2-GFP virus; [3]): < 10 nM; EC50 (hMPV-GFP virus; [5]): > 100 nM
CC(C)(N)c1cc(O[C@@H]2C[C@@H]3[C@H]2CN3C(=O)c2cnc(-c3ncccn3)s2)nc(-c2ccc(F)cc2)c1 (single isomer, unassigned) [Example 2] |  | > 100 | 10 to 100 | 
CC(O)c1nn(-c2ncccn2)cc1C(=O)N1C[C@@H]2C(Oc3cc(C(C)(C)N)cc(-c4ccc(F)c(F)c4)n3)[C@@H]2C1 (single isomer, unassigned; enantiomer 1) [Example 96A] | < 10 |  |  | EC50 (hMPV-GFP virus; [2]): > 100 nM
Cc1nc(-c2ncccn2)sc1C(=O)N1C[C@H]2[C@H](Oc3cc(C(C)(C)N)cc(-c4ccc(F)cc4)n3)[C@@]2(C)C1 (single isomer, unassigned; enantiomer 1) [Example 103A] |  | 10 to 100 | < 10 | 
Cn1nc(-c2ncccn2)cc1C(=O)N1C[C@H]2[C@H](Oc3cc(C(C)(C)N)cc(-c4ccc(F)cc4)n3)[C@@]2(C)C1 (single isomer, unassigned; enantiomer 1) [Example 104A] |  | > 100 | < 10 | 
Cn1nc(-c2ncccn2)cc1C(=O)N1C[C@H]2[C@H](Oc3cc(C(C)(C)N)cc(-c4ccc(F)c(F)c4)n3)[C@@]2(C)C1 (single isomer, unassigned; enantiomer 1) [Example 105A] |  |  | < 10 | EC50 (hMPV-GFP virus; [5]): > 100 nM
Cc1nn(-c2ncccn2)cc1C(=O)N1C[C@H]2[C@H](Oc3cc(C(C)(C)N)cc(-c4ccc(F)c(F)c4)n3)[C@@]2(C)C1 (single isomer, unassigned; enantiomer 1) [Example 106A] |  |  | < 10 | EC50 (hMPV-GFP virus; [5]): > 100 nM
Cc1nn(-c2ncccn2)cc1C(=O)N1C[C@H]2[C@H](Oc3cc(C(C)(C)N)cc(-c4ccc(F)cc4)n3)[C@@]2(C)C1 (single isomer, unassigned; enantiomer 1) [Example 107A] |  | > 100 | < 10 | 
Cn1nc(-c2ncccn2)cc1C(=O)N1C[C@H]2[C@H](Oc3cc(C(C)(C)N)cc(-c4ccc(F)cc4F)n3)[C@@]2(C)C1 (single isomer, unassigned; enantiomer 1) [Example 108A] |  | > 100 | < 10 | 
Cc1nc(-c2ncccn2)sc1C(=O)N1C[C@@H]2[C@H](C1)[C@H]2Oc1cc(C(C)(C)N)cc(-c2ccc(F)c(F)c2)n1 [Example 15, ((1R,5S,6s)-6-((4-(2-aminopropan-2-yl)-6-(3,4-difluorophenyl)pyridin-2-yl)oxy)-3-azabicyclo[3.1.0]hexan-3-yl)(4-methyl-2-(pyrimidin-2-yl)thiazol-5-yl)methanone] | < 10 |  |  | 
Cc1ccc(-c2cc(C(C)(C)N)cc(O[C@H]3[C@@H]4CN(C(=O)c5sc(-c6ncccn6)nc5C)C[C@@H]43)n2)cc1 [Example 21, ((1R,5S,6s)-6-((4-(2-aminopropan-2-yl)-6-(p-tolyl)pyridin-2-yl)oxy)-3-azabicyclo[3.1.0]hexan-3-yl)(4-methyl-2-(pyrimidin-2-yl)thiazol-5-yl)methanone] | < 10 |  |  | 
Cc1nn(-c2ccccc2)cc1C(=O)N1C[C@@H]2[C@H](C1)[C@H]2Oc1cc(C(C)(C)N)cc(-c2ccc(F)cc2)n1 [Example 74, ((1R,5S,6s)-6-((4-(2-aminopropan-2-yl)-6-(4-fluorophenyl)pyridin-2-yl)oxy)-3-azabicyclo[3.1.0]hexan-3-yl)(3-methyl-1-phenyl-1H-pyrazol-4-yl)methanone] | < 10 |  |  | 
